# Results: paper PMC13070491, “Single-nucleus transcriptomics, pharmacokinetics, and pharmacodynamics of CDK4/6 and mTOR inhibition in a Phase 0/1 trial of recurrent high-grade glioma” (Neuro-Oncology, 2025)
# Where “and” joins values, the source holds several entries; their conditions need not be identical. Equal entries are not always repeated.
# Experiment: CNS penetration: total and unbound drug concentrations in tumor regions, CSF and plasma (LC-MS/MS, equilibrium dialysis);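 note: drug levels in patient tumor tissue from contrast-enhancing and non-enhancing regions sampled under MRI-guided neuronavigation, with plasma and CSF drawn during surgical resection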
# Conditions: for concentration at 5 days / Kp at 120 h / Kp: human, oral
# [1] = Level 6: Ribociclib 600mg QD + Everolimus 70mg once on Day 5, sampling 7-9 Hours, per patient
smiles,measurement,setting,value
"CO[C@H]1C[C@@H]2CC[C@@H](C)[C@@](O)(O2)C(=O)C(=O)N2CCCC[C@H]2C(=O)O[C@H]([C@H](C)C[C@@H]2CC[C@@H](OCCO)[C@H](OC)C2)CC(=O)[C@H](C)/C=C(\C)[C@@H](O)[C@@H](OC)C(=O)[C@H](C)C[C@H](C)/C=C/C=C/C=C/1C [Everolimus, everolimus]",Everolimus.Unbound.plasma,"Level 5: Ribociclib 600mg QD + Everolimus 60mg once on Day 5, sampling 7-9 Hours, per patient",4.09E-04 and 6.26E-04 and 4.66E-04
same,Everolimus.CSF,[1],1.14E-02 and BLQ and 1.29E-03
same,Everolimus.Enhancing.tumor,[1],7.18E-02 and 9.00E-02 and 3.12E-02
same,Everolimus.Non-enhancing.tumor,[1],7.82E-02 and 8.24E-03 and 6.80E-03
same,Everolimus.Plasma.conc,[1],0.0531 and 0.05464 and 0.09057
same,Everolimus.Unbound.enhancing,[1],BLQ
same,Everolimus.Unbound.non-enhancing,[1],BLQ
same,Everolimus.Unbound.plasma,[1],3.00E-04 and 2.82E-04 and 4.90E-04
same,"Kp total drug tumor-to-plasma partition ratio, Enhancing tumor, MAX",everolimus 2.5 mg QD 5 days,2.738
same,"Kp total drug tumor-to-plasma partition ratio, Enhancing tumor, MIN",everolimus 2.5 mg QD 5 days,BLQ
same,"Kp total drug tumor-to-plasma partition ratio, Non-enhancing tumor, MAX",everolimus 2.5 mg QD 5 days,1.02
same,"Kp total drug tumor-to-plasma partition ratio, Non-enhancing tumor, MIN",everolimus 2.5 mg QD 5 days,BLQ
same,"Kp total drug tumor-to-plasma partition ratio, Enhancing tumor, MAX",everolimus 5 mg QD 5 days,1.77
same,"Kp total drug tumor-to-plasma partition ratio, Enhancing tumor, MIN",everolimus 5 mg QD 5 days,0.59
same,"Kp total drug tumor-to-plasma partition ratio, Non-enhancing tumor, MAX",everolimus 5 mg QD 5 days,1.09
same,"Kp total drug tumor-to-plasma partition ratio, Non-enhancing tumor, MIN",everolimus 5 mg QD 5 days,0.37
same,"Kp total drug tumor-to-plasma partition ratio, Enhancing tumor, MAX",everolimus 10 mg QD 5 days,1.97
same,"Kp total drug tumor-to-plasma partition ratio, Enhancing tumor, MIN",everolimus 10 mg QD 5 days,BLQ
same,"Kp total drug tumor-to-plasma partition ratio, Non-enhancing tumor, MAX",everolimus 10 mg QD 5 days,1.07
same,"Kp total drug tumor-to-plasma partition ratio, Non-enhancing tumor, MIN",everolimus 10 mg QD 5 days,0.07
same,"Kp total drug tumor-to-plasma partition ratio, Enhancing tumor, MAX",everolimus 50 mg single dose,1.18
same,"Kp total drug tumor-to-plasma partition ratio, Enhancing tumor, MIN",everolimus 50 mg single dose,0.65
same,"Kp total drug tumor-to-plasma partition ratio, Non-enhancing tumor, MAX",everolimus 50 mg single dose,0.32
same,"Kp total drug tumor-to-plasma partition ratio, Non-enhancing tumor, MIN",everolimus 50 mg single dose,BLQ
same,"Kp total drug tumor-to-plasma partition ratio, Enhancing tumor, MAX",everolimus 60 mg single dose,1.24
same,"Kp total drug tumor-to-plasma partition ratio, Enhancing tumor, MIN",everolimus 60 mg single dose,0.145
same,"Kp total drug tumor-to-plasma partition ratio, Non-enhancing tumor, MAX",everolimus 60 mg single dose,0.51
same,"Kp total drug tumor-to-plasma partition ratio, Enhancing tumor, MAX",everolimus 70 mg single dose,1.64
same,"Kp total drug tumor-to-plasma partition ratio, Enhancing tumor, MIN",everolimus 70 mg single dose,0.34
same,"Kp total drug tumor-to-plasma partition ratio, Non-enhancing tumor, MAX",everolimus 70 mg single dose,1.47
same,"Kp total drug tumor-to-plasma partition ratio, Non-enhancing tumor, MIN",everolimus 70 mg single dose,0.075
same,concentration at 5 days,"CSF, Total everolimus, MAX, 10 mg QD 5 days",2.5 nM
same,concentration at 5 days,"CSF, Total everolimus, MAX, 50 mg single dose",1.5 nM
same,concentration at 5 days,"CSF, Total everolimus, MED, 2.5 mg QD 5 days",0.33 nM
same,concentration at 5 days,"CSF, Total everolimus, MED, 50 mg single dose",0.935 nM
same,concentration at 5 days,"CSF, median everolimus CSF concentration, across the different dose levels",0.48 nM
same,Kp at 120 h,"enhancing tumor and plasma, 2.5 mg",0.62
same,Kp at 120 h,"enhancing tumor and plasma, 5 mg",1.32
same,Kp at 120 h,"enhancing tumor and plasma, 10 mg",1.2
same,Kp,"enhancing tumor and plasma, 50 mg",0.89
same,Kp,"enhancing tumor and plasma, 60 mg",0.33
same,Kp,"enhancing tumor and plasma, 70 mg",1.35
same,concentration at 5 days,"enhancing tumor, Total everolimus, MAX, 2.5 mg QD 5 days",83.4 nM
same,concentration at 5 days,"enhancing tumor, Total everolimus, MAX, 5 mg QD 5 days",39.8 nM
same,concentration at 5 days,"enhancing tumor, Total everolimus, MAX, 10 mg QD 5 days",61.3 nM
same,concentration at 5 days,"enhancing tumor, Total everolimus, MAX, 50 mg single dose",74.1 nM
same,concentration at 5 days,"enhancing tumor, Total everolimus, MAX, 60 mg single dose",87.6 nM
same,concentration at 5 days,"enhancing tumor, Total everolimus, MAX, 70 mg single dose",90 nM
same,concentration at 5 days,"enhancing tumor, Total everolimus, MED, 2.5 mg QD 5 days",5.9 nM
same,concentration at 5 days,"enhancing tumor, Total everolimus, MED, 5 mg QD 5 days",16.6 nM
same,concentration at 5 days,"enhancing tumor, Total everolimus, MED, 10 mg QD 5 days",44 nM
same,concentration at 5 days,"enhancing tumor, Total everolimus, MED, 50 mg single dose",54.5 nM
same,concentration at 5 days,"enhancing tumor, Total everolimus, MED, 60 mg single dose",30.4 nM
same,concentration at 5 days,"enhancing tumor, Total everolimus, MED, 70 mg single dose",71.8 nM
same,concentration at 5 days,"enhancing tumor, Total everolimus, MIN, 5 mg QD 5 days",11.1 nM
same,concentration at 5 days,"enhancing tumor, Total everolimus, MIN, 50 mg single dose",51.6 nM
same,concentration at 5 days,"enhancing tumor, Total everolimus, MIN, 60 mg single dose",9.8 nM
same,concentration at 5 days,"enhancing tumor, Total everolimus, MIN, 70 mg single dose",31.2 nM
same,Kp at 120 h,"non-enhancing tumor / plasma, 5 mg",0.89
same,Kp at 120 h,"non-enhancing tumor / plasma, 10 mg",0.1
same,Kp at 120 h,"non-enhancing tumor and plasma, 2.5 mg",0.49
same,Kp,"non-enhancing tumor and plasma, 50 mg",0.21
same,Kp,"non-enhancing tumor and plasma, 60 mg",0.17
same,Kp,"non-enhancing tumor and plasma, 70 mg",0.15
same,concentration at 5 days,"non-enhancing tumor, Total everolimus, MAX, 2.5 mg QD 5 days",35.3 nM
same,concentration at 5 days,"non-enhancing tumor, Total everolimus, MAX, 5 mg QD 5 days",20.2 nM
same,concentration at 5 days,"non-enhancing tumor, Total everolimus, MAX, 10 mg QD 5 days",33.3 nM
same,concentration at 5 days,"non-enhancing tumor, Total everolimus, MAX, 50 mg single dose",25.1 nM
same,concentration at 5 days,"non-enhancing tumor, Total everolimus, MAX, 60 mg single dose",36.1 nM
same,concentration at 5 days,"non-enhancing tumor, Total everolimus, MAX, 70 mg single dose",78.2 nM
same,concentration at 5 days,"non-enhancing tumor, Total everolimus, MED, 2.5 mg QD 5 days",5.28 nM
same,concentration at 5 days,"non-enhancing tumor, Total everolimus, MED, 5 mg QD 5 days",10.3 nM
same,concentration at 5 days,"non-enhancing tumor, Total everolimus, MED, 10 mg QD 5 days",5 nM
same,concentration at 5 days,"non-enhancing tumor, Total everolimus, MED, 50 mg single dose",15.7 nM
same,concentration at 5 days,"non-enhancing tumor, Total everolimus, MED, 60 mg single dose",13.8 nM
same,concentration at 5 days,"non-enhancing tumor, Total everolimus, MED, 70 mg single dose",8.2 nM
same,concentration at 5 days,"non-enhancing tumor, Total everolimus, MIN, 5 mg QD 5 days",9.2 nM
same,concentration at 5 days,"non-enhancing tumor, Total everolimus, MIN, 10 mg QD 5 days",4.5 nM
same,concentration at 5 days,"non-enhancing tumor, Total everolimus, MIN, 60 mg single dose",11.3 nM
same,concentration at 5 days,"non-enhancing tumor, Total everolimus, MIN, 70 mg single dose",6.8 nM
same,concentration at 5 days,"tumor tissue (enhancing and non-enhancing regions), unbound everolimus concentrations in enhancing and non-enhancing tumor regions (below the lower limit of quantitation), all dose levels",< 0.1 nM
